Source: article PMC12394895, “Detection and characterisation of ligand-induced conformational changes in acetylcholine binding proteins using biosensors and X-ray crystallography” (RSC Chemical Biology, 2025)

What was measured:
Ls-AChBP [1] = biological target: T1, Ls-AChBP (Lymnaea stagnalis, UniProt P58154); test: GCI biosensor, steady state; assay type: binding
T1 construct: soluble homopentamer, AChBP pentamer 125 kDa; amine-coupled for SAW and GCI

Ls-AChBP [2] = biological target: T1, Ls-AChBP; test: SAW biosensor, phase signal; assay type: binding; settings: pH 7.4, 25 °C, 5% DMSO; immobilised protein; unreliable (very rough approximation, steady state not always reached)
From the text: SAW biosensor, phase signal on Ls-AChBP

T1 sequence (P58154 20-229): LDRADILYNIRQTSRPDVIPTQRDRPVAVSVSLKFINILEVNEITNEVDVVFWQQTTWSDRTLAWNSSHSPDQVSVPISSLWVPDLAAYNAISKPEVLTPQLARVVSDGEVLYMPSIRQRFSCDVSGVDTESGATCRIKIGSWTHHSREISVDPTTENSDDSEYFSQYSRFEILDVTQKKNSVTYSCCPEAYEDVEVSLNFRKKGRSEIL

Compound | Kd (Ls-AChBP [1]) | Phase KD (Ls-AChBP [2])
Cn1ccnc1/C=C/c1ccc(O)c(O)c1 [VUF22430] | 1.3 µM | –
CCn1ccnc1-c1cccc(-c2ccccn2)n1 [VUF24234] | 5 µM | –
CC(=O)OCC[N+](C)(C)C [acetylcholine] | – | 0.61 µM
CN1CCC[C@H]1c1cccnc1 [nicotine] | – | 0.035 µM
VUF6105 | – | 12 µM
